Literature values in patent publication US20130309325A1, “COMPOSITION AND METHOD FOR PROMOTING JOINT AND BONE HEALTH” (VITAL ANIMAL HEALTH, LLC, priority 2012, published 2013).

System: young racing quarter horses
[1] = horses with increased plasma silicon concentrations

silicon
average race times [1]: faster average race times
distance covered before injury [1]: covered more distance before injury
strides completed before injury [1]: completed more strides before injury
incidence of bone related injuries (supplemental silicon, young racing quarter horses): decreased the incidence of bone related injuries
